Key:
[1] = Supplementary Table S1; cited from earlier work
[2] = WHO adverse drug reactions VigiBase; ref Kumlien and Lundberg, 2010; cited from earlier work
[3] = seizure ADR frequency in SIDER; ref Campillos et al., 2008; Kuhn et al., 2010; cited from earlier work
[4] = test system: Male rats (Sprague-Dawley); assay: EEG recordings and behavioral seizures in freely moving rats; format: in vivo; details: freely moving rat, iv
From the text: Electroencephalogram (EEG) rodent studies and assessment of seizures: Male rats (n = 8) (Sprague-Dawley), 400-800 g, were surgically implanted with Stellar Implantable Transmitter (E−430001-IMP-77, Type PBT-M-C Pressure, Biopotential, Temp; TSE systems USA) and microchipped with RFID (Bio13. Therm.03V1 PLS, Biomark Inc, USA) transponder for measurements of activity and body temperature. EEG was used to confirm that convulsive activity is linked to seizurogenic activity measured on the EEG.

[5] = test system: rat primary cortical neurons; assay: MEA hazard scoring in rat primary cortical neuronal cultures
Experimental: (§1) At DIV28, spontaneous neuronal activity obtained for 30 min in culture solution was defined as the baseline.
(§2) Data analysis was captured using AxIs suite software (Axion Biosystems Inc., version 3.6.2) and further analyzed using GraphPad Prism (version 9.00; GraphPad Software Inc., San Diego, CA). […] An active well should have more than 40% active electrodes. All wells below this threshold were discarded upon these quality criteria. For the downstream statistical analysis, the data on each MEA parameter was first expressed as the ratio of exposed wells (percentage change between baseline and the treatment) and then normalized to the average of the control within the same plate. i.e., Baseline corrected ratios of n= 7 or eight wells were averaged per condition. Each well of the MEA served as its own control, and the changes in the electrical activity elicited by the treatments were expressed as a percentage of that control activity and normalized to the wells treated with the vehicle control dimethyl sulfoxide (DMSO). […] Differences were determined using the non-parametric Wilcoxon Mann Whitney test; p-values below 0.05 were considered significant. Data are expressed as means ± S.E.M.
(§3) Thereafter, based on the effects of vehicles and positive controls, we determined the cut-off points between the different effect zones according to the key parameters selected as described in the previous subsection. The zones were defined as follows. The “no effect” zone reflects parameter changes that are most likely within vehicle variability. The “mild” and “strong” zones are differentiated bidirectionally showing mild and strong effects.
(§4) The respective hazard class was determined by a cumulative scoring of individual parameters using a scoring matrix, which was based on the following three fundamental components: (1) selection of the six key relevant parameters, (2) defining the cutoffs for the level of effect, and (3) defining weighted points per parameter for the level of hazard potential. The scoring matrix concluded with the addition of a weighted point algorithm to discriminate distinct degrees of neuronal hazard. […] The weighted points were defined on the importance of a parameter (and the direction of effect), as well as the identification of an expected hazard for different pharmacological modes of action. The overall hazard score is derived from the sum of all weighted parameters, which could be converted into a specific hazard label. The weighted points and total score range associated with the various hazard labels were optimized using an iterative process.

[6] = established from VigiBase, SIDER, Elsevier drug information and FDA prescribing information
[7] = test system: rat primary cortical neurons
Experimental: as §1, §2, §3, §4

[8] = ref National library of medicine, Daylimed; cited from earlier work

Row | Structure (SMILES) | Free Cmax highest [1] | Percentage seizures of total number of ADRs [2] | SIDER ADR on-/off-label [3] | EEG spikes ([4]; 1 mg/kg) | convulsions and seizures ([4]; 3 mg/kg) | firing rate (weighted mean firing rate) in MEA recordings ([5]; rodent cortical neurons in vitro) | Classification* (degree of seizure risk) [6] | hazard score group in Figure 3 [7] | FDA prescription information at therapeutic dose (Convulsion/ Seizure/Lower the seizure threshold/withdrawal) [8] | hazard classification in the hazard scoring system ([5]; rat primary neurons on MEA)
1 | Nc1ccncc1 [4-Aminopyridine] | 240 nM | 2.353% | no frequency information | significantly increased | induced convulsions and seizures | largely increased | Risk | Neuro Active to high hazard |  | 
2 | O=C1CN=C(c2ccccc2Cl)c2cc([N+](=O)[O-])ccc2N1 [Clonazepam] | 12 nM | 2.831% | not found on label |  |  |  | Risk | Neuro Active to hazard | on label | hazards
3 | NCC1(CC(=O)O)CCCCC1 [Gabapentin] | 2080 nM | 1.766% | postmarketing |  |  |  | Risk | Neuro Active to high hazard | On label | 
4 | CCCC(C)C1(CC)C(=O)NC(=O)NC1=O (stereo not drawn) [Pentobarbital] | 5100 nM | 3.3557% | not found on label |  |  |  | Risk | Neuro Active to hazard | not found on label | 
